Laboratory results taken from patent US20020051811A1, “Method and composition for masking mineral taste” (priority 1999, published 2002).
Marks after values point to notes of the source that are not given here. Residues, ends and D or L forms follow the SMILES beside them.

Key:
Assay type in all cases: in vivo
[1] = AK added at low levels to solutions containing KCl, perceived bitter aftertaste; settings: 1 to 5 mg/100 ml
Description: The level of AK used was 1 to 5 mg/100 ml, which is equivalent in sweetness contribution to between 0.2% and 1% sucrose. This characteristic is specific to AK, and is not noted when […].

[2] = Expert panel evaluation of taste modifiers on taste of KCl solutions; settings: 1.26% KCl, score 0-8
Description: Additional testing was conducted, comparing the absence of taste modifiers with the three taste modifiers of the invention, both separately, and in combinations (AK and glycyrrhizin) (AK and tannic acid) (glycyrrhizin and tannic acid). […] In this study, again, 1.26% KCl was prepared, and used as the test medium for all experiments. The aqueous solution was evaluation by an expert panel for each of the taste attributes. The panel consisted of eight individuals who were screened for their taste acuity and trained in the use of the score sheet. The score sheet employed by the panel appears as Table III hereto.

[3] = Effect of glycyrrhizin on potassium-containing beverages (taste scores); settings: for effect on aftertaste of KCl: 20-40 mg/100 cc, beverage containing 2.52% KCl by weight; for Bitter / Metallic / Salt: 2.52% KCl beverage, scale 0 to 8
Excerpt: The effect of glycyrrhizin on potassium-containing beverages was studied.

[4] = Effect of tannic acid on potassium-containing beverages (taste scores); settings: for Aftertaste / Bitter / Salt: 1.26% KCl beverage, scale 0 to 8
Excerpt: The effect of tannic acid on potassium-containing beverages was studied.

SMILES: O=C1NS(=O)(=O)c2ccccc21 [saccharin]
- effect on perceived bitter aftertaste of KCl solutions [1]: not noted

SMILES: CC1(C)[C@@H](O[C@H]2O[C@H](C(=O)O)[C@@H](O)[C@H](O)[C@H]2O[C@@H]2O[C@H](C(=O)O)[C@@H](O)[C@H](O)[C@H]2O)CC[C@]2(C)[C@H]3C(=O)C=C4[C@@H]5C[C@@](C)(C(=O)O)CC[C@]5(C)CC[C@@]4(C)[C@]3(C)CC[C@@H]12 [glycyrrhizin]
- Bitter ([2]; modifier 5.0 mg/100 cc): 2.0*
- Other ([2]; modifier 5.0 mg/100 cc): 1.0*
- Salt ([2]; modifier 5.0 mg/100 cc): 3.5
- Sour ([2]; modifier 5.0 mg/100 cc): 0.0
- Sweet ([2]; modifier 5.0 mg/100 cc): 0.0
- Bitter ([2]; modifier 10.0 mg/100 cc): 3.3*
- Other ([2]; modifier 10.0 mg/100 cc): 2.0*
- Salt ([2]; modifier 10.0 mg/100 cc): 2.3
- Sour ([2]; modifier 10.0 mg/100 cc): 0.0
- Sweet ([2]; modifier 10.0 mg/100 cc): 0.0
- Bitter ([2]; modifier 20.0 mg/100 cc): 2.3*
- Other ([2]; modifier 20.0 mg/100 cc): 2.0*
- Salt ([2]; modifier 20.0 mg/100 cc): 2.0
- Sour ([2]; modifier 20.0 mg/100 cc): 0.0
- Sweet ([2]; modifier 20.0 mg/100 cc): 0.5
- effect on aftertaste of KCl [3]: effective in reducing the aftertaste of KCl
- effect on aftertaste of KCl ([3]; listed as Glycyrrhizin): effective in reducing the bitter and metallic aftertaste of KCl
- Bitter ([3]; +20 mg/100 cc glycyrrhizin): 2.5
- Metallic ([3]; +20 mg/100 cc glycyrrhizin): 2.0
- Salt ([3]; +20 mg/100 cc glycyrrhizin): 2.5
- Bitter ([3]; +40 mg/100 cc glycyrrhizin): 2.5
- Metallic ([3]; +40 mg/100 cc glycyrrhizin): 2.0
- Salt ([3]; +40 mg/100 cc glycyrrhizin): 2.0

SMILES: CC1=CC(=O)NS(=O)(=O)O1 [Acesulfame-K, acesulfame potassium]
- effect on perceived bitter aftertaste of KCl solutions [1]: reduced the perceived bitter aftertaste
- Bitter ([2]; modifier 2.5 mg/100 cc): 3.0*
- Other ([2]; modifier 2.5 mg/100 cc): 2.8*
- Salt ([2]; modifier 2.5 mg/100 cc): 2.8
- Sour ([2]; modifier 2.5 mg/100 cc): 0.0
- Sweet ([2]; modifier 2.5 mg/100 cc): 0.0
- Bitter ([2]; modifier 5.0 mg/100 cc): 2.3*
- Other ([2]; modifier 5.0 mg/100 cc): 2.2*
- Salt ([2]; modifier 5.0 mg/100 cc): 2.3
- Sour ([2]; modifier 5.0 mg/100 cc): 0.0
- Sweet ([2]; modifier 5.0 mg/100 cc): 0.0
- Bitter ([2]; modifier 7.5 mg/100 cc): 1.8*
- Other ([2]; modifier 7.5 mg/100 cc): 0.5*
- Salt ([2]; modifier 7.5 mg/100 cc): 1.5*
- Sour ([2]; modifier 7.5 mg/100 cc): 0.0
- Sweet ([2]; modifier 7.5 mg/100 cc): 1.3

SMILES: O=C(OC[C@H]1O[C@@H](OC(=O)c2cc(O)c(O)c(OC(=O)c3cc(O)c(O)c(O)c3)c2)[C@H](OC(=O)c2cc(O)c(O)c(OC(=O)c3cc(O)c(O)c(O)c3)c2)[C@@H](OC(=O)c2cc(O)c(O)c(OC(=O)c3cc(O)c(O)c(O)c3)c2)[C@@H]1OC(=O)c1cc(O)c(O)c(OC(=O)c2cc(O)c(O)c(O)c2)c1)c1cc(O)c(O)c(OC(=O)c2cc(O)c(O)c(O)c2)c1 [tannic acid]
- Aftertaste ([4]; +5 mg/100 cc tannic acid): 1.0
- Bitter ([4]; +5 mg/100 cc tannic acid): 1.0
- Salt ([4]; +5 mg/100 cc tannic acid): 1.5
- Aftertaste ([4]; +10 mg/100 cc tannic acid): 1.0
- Bitter ([4]; +10 mg/100 cc tannic acid): 1.0
- Salt ([4]; +10 mg/100 cc tannic acid): 1.0
- Aftertaste ([4]; +50 mg/100 cc tannic acid): 1.0
- Bitter ([4]; +50 mg/100 cc tannic acid): 2.5
- Salt ([4]; +50 mg/100 cc tannic acid): 1.5
- effect on bitter aftertaste and salty taste ([4]; beverage containing 1.26% KCl): reduces the level of bitter aftertaste without increasing the salty taste
- effect on aftertaste of KCl ([4]; levels as low as 5 mg/100 cc, beverage containing 1.26% KCl by weight): effective in reducing and eliminating the aftertaste of KCl
- Bitter ([2]; modifier 1.0 mg/100 cc): 3.0*
- Other ([2]; modifier 1.0 mg/100 cc): 3.3*
- Salt ([2]; modifier 1.0 mg/100 cc): 3.3
- Sour ([2]; modifier 1.0 mg/100 cc): 0.0
- Sweet ([2]; modifier 1.0 mg/100 cc): 0.0
- Bitter ([2]; modifier 5.0 mg/100 cc): 2.0*
- Other ([2]; modifier 5.0 mg/100 cc): 3.0*
- Salt ([2]; modifier 5.0 mg/100 cc): 3.8
- Sour ([2]; modifier 5.0 mg/100 cc): 0.0
- Sweet ([2]; modifier 5.0 mg/100 cc): 0.0
- Bitter ([2]; modifier 10.0 mg/100 cc): 2.0*
- Other ([2]; modifier 10.0 mg/100 cc): 2.0*
- Salt ([2]; modifier 10.0 mg/100 cc): 2.0
- Sour ([2]; modifier 10.0 mg/100 cc): 0.0
- Sweet ([2]; modifier 10.0 mg/100 cc): 0.0

SMILES: COC(=O)[C@H](Cc1ccccc1)NC(=O)[C@@H](N)CC(=O)O [aspartame] (HELM PEPTIDE1{D.F.[CO[*:1]]}$$$$V2.0)
- effect on perceived bitter aftertaste of KCl solutions [1]: not noted
